From patent US20250282803A1, “DIDEHYDRO-3'-DEOXY-4'-ETHYNYLTHYMIDINES AND RELATED COMPOUNDS AND THEIR USE IN TREATING MEDICAL CONDITIONS” (ROME Therapeutics, Inc., priority 2022, published 2025)

Columns and labels:
[1] = biological target: T1, LINE1 reverse transcriptase (Homo sapiens, UniProt O00370); test: Transient artificial-intron Cis LINE1 reporter assay; type: cell-based; conditions: HEK 293 cells, transient transfection; ratio FLuc/RLuc reports LINE1 activity
Procedure: The following compound (hereinafter “Test Compound”) was tested for ability to inhibit LINE1 reverse transcriptase using a transient artificial-intron Cis LINE1 reporter assay:
Additional exemplary compounds were also tested for ability to inhibit LINE1 reverse transcriptase using a transient artificial-intron Cis LINE1 reporter assay. Assay procedures and results are described below.
Intron-disrupted Firefly luciferase (FLuc) expression cassettes were generated as described by Xie, Y. et al. “Characterization of L1 retrotransposition with high-throughput dual-luciferase assays,” Nucleic Acid Res. (2011) Vol. 39, No. 3, e16. In addition, the plasmid contained an intact Renilla luciferase (RLuc) expression cassette on the vector backbone, in order to normalize transfection efficiency and measure potential cell toxicity.
HEK 293 cells were seeded in 96-well plates at 1,000 cells/well in 55 μL and grown for 24 hours. Cells were transfected with FuGeneHD (Promega) following the manufacturer's protocol. Each well received 0.133 ng plasmid, 0.4 μL FuGeneHD reagent, and 4.5 μL GlutaMAX-I-supplemented Opti-MEM I reduced-serum medium (Invitrogen). Cells were simultaneously treated with test compound serially diluted starting at 100 μM in a 3-fold dilution dose response.
Luminescence was measured using the Dual-Glo Luciferase Assay System (Promega) following the manufacturer's instructions. The ratio between FLuc and RLuc gene expression was used to report LINE1 activity.

[2] = biological target: T1, LINE1 reverse transcriptase; test: Stable artificial-intron Cis LINE1 reporter assay; type: cell-based; parameters: host or cells: HeLa Tet-On 3G; conditions: stable HeLa Tet-On 3G L1 reporter cells, doxycycline 500 ng/mL, 72 h; Firefly Luciferase activity
Procedure: Exemplary compounds were tested for ability to inhibit LINE1 reverse transcriptase using a stable artificial-intron Cis LINE1 reporter assay. Assay procedures and results are described below.
A stable HeLa Tet-On 3G (Takara, cat no 631183) cell line expressing a bi-directional inducible LINE1 construct was generated as described in Xie, Y. et al. “Cell division promotes efficient retrotransposition in a stable L1 reporter cell line,” Mobile DNA (2013) 4:10. Single cell clones were screened for high Luciferase expression and the highest expression Firefly expressing clone was chosen for compound testing.
Test compounds were serially diluted in DMSO and spotted in 96-well plates. Subsequently the HeLa L1 artificial-intron reporter cells were plated into the compound-containing wells (8,000 cells/well), and the cells were induced for reporter expression with doxycycline (Sigma cat no D9891) at a final concentration of 500 ng/mL. Luminescence was measured 72 h after plating using the Dual-Glo Luciferase Assay System (Promega cat no E2940) following the manufacturer's instructions. The Firefly Luciferase activity was used to report LINE1 activity.

T1 sequence (O00370 whole entry, looked up): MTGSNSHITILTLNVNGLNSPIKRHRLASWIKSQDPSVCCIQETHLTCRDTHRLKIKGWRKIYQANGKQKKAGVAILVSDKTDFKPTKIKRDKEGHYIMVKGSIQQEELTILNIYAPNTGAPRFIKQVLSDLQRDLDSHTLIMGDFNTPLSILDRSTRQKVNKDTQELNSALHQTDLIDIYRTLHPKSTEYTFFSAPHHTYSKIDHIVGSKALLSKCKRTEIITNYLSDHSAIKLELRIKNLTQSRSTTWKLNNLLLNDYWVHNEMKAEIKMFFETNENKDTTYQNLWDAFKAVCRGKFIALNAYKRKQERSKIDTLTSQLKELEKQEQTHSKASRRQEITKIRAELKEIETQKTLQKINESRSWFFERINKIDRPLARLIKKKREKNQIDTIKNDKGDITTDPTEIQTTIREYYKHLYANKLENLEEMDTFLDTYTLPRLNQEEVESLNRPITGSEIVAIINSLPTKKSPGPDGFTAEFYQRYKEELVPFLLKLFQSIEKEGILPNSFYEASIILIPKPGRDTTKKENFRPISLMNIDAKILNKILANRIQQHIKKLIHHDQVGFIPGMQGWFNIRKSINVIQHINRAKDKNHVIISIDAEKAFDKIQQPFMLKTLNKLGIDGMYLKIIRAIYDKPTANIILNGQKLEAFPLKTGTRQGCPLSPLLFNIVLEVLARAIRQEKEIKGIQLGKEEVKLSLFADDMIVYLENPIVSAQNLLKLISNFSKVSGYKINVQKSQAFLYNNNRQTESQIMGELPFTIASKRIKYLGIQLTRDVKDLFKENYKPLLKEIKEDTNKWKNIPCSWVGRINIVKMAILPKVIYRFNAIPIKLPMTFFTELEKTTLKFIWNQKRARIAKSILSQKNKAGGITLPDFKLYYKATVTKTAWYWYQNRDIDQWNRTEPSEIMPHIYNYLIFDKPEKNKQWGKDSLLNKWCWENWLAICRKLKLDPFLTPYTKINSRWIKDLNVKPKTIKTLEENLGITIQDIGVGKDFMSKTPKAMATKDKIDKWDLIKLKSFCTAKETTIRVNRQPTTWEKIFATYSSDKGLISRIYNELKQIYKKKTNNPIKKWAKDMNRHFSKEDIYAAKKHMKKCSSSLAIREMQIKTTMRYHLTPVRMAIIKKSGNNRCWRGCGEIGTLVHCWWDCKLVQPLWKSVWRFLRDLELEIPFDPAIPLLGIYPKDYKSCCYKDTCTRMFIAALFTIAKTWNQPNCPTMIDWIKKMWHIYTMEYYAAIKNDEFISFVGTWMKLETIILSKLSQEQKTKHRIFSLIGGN

| Compound | IC50 [1] [nM] | IC50 [2] [nM] |
| --- | --- | --- |
| C#C[C@@]1(COP(=O)(N[C@@H](C)C(=O)OCc2ccccc2)Oc2ccccc2)C=C[C@H](n2cc(C)c(=O)[nH]c2=O)O1 (mixture of isomers) [Benzyl ((((2R,5R)-2-Ethynyl-5-(5-methyl-2,4-dioxo-3,4-dihydropyrimidin-1(2H)-yl)-2,5-dihydrofuran-2-yl)methoxy)(phenoxy)phosphoryl)-L-alaninate] |  | 50 to 500 |
| C#C[C@@]1(COP(=O)(N[C@@H](C)C(=O)OC)Oc2ccccc2)C=C[C@H](n2cc(C)c(=O)[nH]c2=O)O1 (mixture of isomers) [Methyl ((((2R,5R)-2-Ethynyl-5-(5-methyl-2,4-dioxo-3,4-dihydropyrimidin-1(2H)-yl)-2,5-dihydrofuran-2-yl)methoxy)(phenoxy)phosphoryl)-L-alaninate] |  | > 500 |
| C#C[C@@]1(COP(=O)(N[C@@H](C)C(=O)OC)Oc2ccc(Br)cc2)C=C[C@H](n2cc(C)c(=O)[nH]c2=O)O1 (single isomer, unassigned) [P-Diastereomer 1 from Example 2; I-7 or I-8] |  | 50 to 500 |
| C#C[C@@]1(COP(=O)(N[C@@H](C)C(=O)OC)Oc2ccc(Br)cc2)C=C[C@H](n2cc(C)c(=O)[nH]c2=O)O1 (single isomer, unassigned) [P-Diastereomer 2 from Example 2; I-7 or I-8] | 50 to 500 |  |
| C#C[C@@]1(COP(=O)(NC(C)(C)C(=O)OC(C)C)Oc2ccccc2)C=C[C@H](n2cc(C)c(=O)[nH]c2=O)O1 (single isomer, unassigned) [P-Diastereomer 1 from Example 2; II-22 or II-23] |  | > 500 |
| C#C[C@@]1(COP(=O)(N[C@@H](C)C(=O)OCC(C)(C)C)Oc2cccc3ccccc23)C=C[C@H](n2cc(C)c(=O)[nH]c2=O)O1 (single isomer, unassigned) [P-Diastereomer 2 from Example 2; I-16 or III-1] | ≤ 50 | 50 to 500 |
| C#C[C@@]1(COP(=O)(NC(C)(C)C(=O)OC(C)C)Oc2ccccc2)C=C[C@H](n2cc(C)c(=O)[nH]c2=O)O1 (single isomer, unassigned) [P-Diastereomer 2 from Example 2; II-22 or II-23] |  | > 500 |
| C#C[C@@]1(CO)C=C[C@H](n2cc(C)c(=O)[nH]c2=O)O1 |  | 50 to 500 |
| C#C[C@@]1(COP(=O)(NCc2ccccc2)OCCSC(=O)C(C)(C)CO)C=C[C@H](n2cc(C)c(=O)[nH]c2=O)O1 (single isomer, unassigned) [P-Diastereomer 2 from Example 3; II-1 or II-2] | 50 to 500 |  |
| C#C[C@@]1(COP(=O)(NCc2ccccc2)OCCSC(=O)C(C)(C)CO)C=C[C@H](n2cc(C)c(=O)[nH]c2=O)O1 (single isomer, unassigned) [P-Diastereomer 1 from Example 3; II-1 or II-2] | 50 to 500 | 50 to 500 |
| C#C[C@@]1(COP(=O)(N[C@@H](C)C(=O)OCC(C)(C)C)Oc2cccc3ccccc23)C=C[C@H](n2cc(C)c(=O)[nH]c2=O)O1 (single isomer, unassigned) [P-Diastereomer 1 from Example 2; I-16 or III-1] | 50 to 500 | 50 to 500 |

Results, then the molecule that gave them:

| IC50 [1] [nM] | IC50 [2] [nM] | Compound |
| --- | --- | --- |
| 50 to 500 | 50 to 500 | C#C[C@@]1(CO[P@](=O)(N[C@@H](C)C(=O)OCC(CC)CC)Oc2ccccc2)C=C[C@H](n2cc(C)c(=O)[nH]c2=O)O1 [Compound I-5, 2-Ethylbutyl ((R)-(((2R,5R)-2-Ethynyl-5-(5-methyl-2,4-dioxo-3,4-dihydropyrimidin-1(2H)-yl)-2,5-dihydrofuran-2-yl)methoxy)(phenoxy)phosphoryl)-L-alaninate] |
|  | ≤ 50 | C#C[C@@]1(COP(=O)(OCOC(=O)OC(C)C)OCOC(=O)OC(C)C)C=C[C@H](n2cc(C)c(=O)[nH]c2=O)O1 [IV-1, 1-[(2R,5R)-5-[({di[(isopropoxycarbonyl)oxy]methoxyphosphoryl}oxy)methyl]-5-ethynyl-2H-furan-2-yl]-5-methyl-3H-pyrimidine-2,4-dione] |
| 50 to 500 | > 500 | C#C[C@@]1(CO[P@@](=O)(N[C@@H](C)C(=O)OC(C)C)Oc2ccccc2)C=C[C@H](n2cc(C)c(=O)[nH]c2=O)O1 [Compound I-2, Isopropyl ((S)-(((2R,5R)-2-Ethynyl-5-(5-methyl-2,4-dioxo-3,4-dihydropyrimidin-1(2H)-yl)-2,5-dihydrofuran-2-yl)methoxy)(phenoxy)phosphoryl)-L-alaninate] |
| 50 to 500 | 50 to 500 | C#C[C@@]1(CO[P@@](=O)(N[C@@H](C)C(=O)OCC(CC)CC)Oc2ccccc2)C=C[C@H](n2cc(C)c(=O)[nH]c2=O)O1 [Compound I-6, 2-Ethylbutyl ((S)-(((2R,5R)-2-Ethynyl-5-(5-methyl-2,4-dioxo-3,4-dihydropyrimidin-1(2H)-yl)-2,5-dihydrofuran-2-yl)methoxy)(phenoxy)phosphoryl)-L-alaninate] |
| 50 to 500 | > 500 | C#C[C@@]1(CO[P@](=O)(N[C@@H](C)C(=O)OC(C)C)Oc2ccccc2)C=C[C@H](n2cc(C)c(=O)[nH]c2=O)O1 [Compound I-1, Isopropyl ((R)-(((2R,5R)-2-Ethynyl-5-(5-methyl-2,4-dioxo-3,4-dihydropyrimidin-1(2H)-yl)-2,5-dihydrofuran-2-yl)methoxy)(phenoxy)phosphoryl)-L-alaninate] |
